The results in this text go back to ChEMBL document CHEMBL1150137, “Nanjiols A-C, new steroids from the Chinese soft coral Nephthea bayeri” (J Nat Prod, 2002).

≈ marks a conversion by molar mass, not a printed value.

The test system of this assay is HL-60. Nature of the assay: Cytotoxicity against human HL60 cells. Format: functional, cell-based.

For `CC(=O)O[C@H]1C[C@H]2[C@@H]3CCC4=CC(=O)CC[C@]4(C)[C@H]3C[C@@H](OC(C)=O)[C@]2(C)[C@H]1[C@@](C)(O)CCCC(C)C` [NANJIOL B], the IC50 (in general, the concentration needed to halve the response being measured) amounted to 5 µg/mL (≈ 9.68 µM).
